Test results: patent publication US20210254056A1, “IDENTIFICATION AND TARGETED MODULATION OF GENE SIGNALING NETWORKS” (CAMP4 THERAPEUTICS CORPORATION, priority 2017, published 2021)
Counter-ions that a name gives are not always drawn.

Tested on: hepatocytes
Assay: RNA-seq of hepatocytes treated with Phase III failure compounds
Conditions: hepatocytes
Method: RNA-seq was performed to determine the effects of the compounds on hepatocytes.
Significance was determined by the criteria of FPKM≥0.5, a log 2(fold-change)≥1, and a […].

## Fc1ccc(C(OCCN2CCN(CCCc3ccccc3)CC2)c2ccc(F)cc2)cc1 [Vanoxerine (dihydrochloride), Vanoxerine]
RNA-seq, q≤0.05, genes in the value or listed in the block
  significant modulation of expression of disease genes: significantly (q≤0.05) modulate expression of HMOX1
Gene B2M
  B2M expression, RNA-seq result: −0.07
Gene B9D2
  B9D2 expression, RNA-seq result: 0.29
Gene BAAT
  BAAT expression, RNA-seq result: 0.01
Gene BBOX1
  BBOX1 expression, RNA-seq result: 0.01
Gene BBS10
  BBS10 expression, RNA-seq result: −0.41
Gene BCHE
  BCHE expression, RNA-seq result: −0.5
Gene BCKDHB
  BCKDHB expression, RNA-seq result: −0.06
Gene BCKDK
  BCKDK expression, RNA-seq result: 0.02
Gene BCO1
  BCO1 expression, RNA-seq result: 0.08
Gene BCR
  BCR expression, RNA-seq result: 0.04
Gene BLNK
  BLNK expression, RNA-seq result: 0.18
Gene BLOC1S3
  BLOC1S3 expression, RNA-seq result: 0.46
Gene BMPR1A
  BMPR1A expression, RNA-seq result: 0
Gene BRAF
  BRAF expression, RNA-seq result: 0.2
Gene BSCL2
  BSCL2 expression, RNA-seq result: −0.45
Gene BTD
  BTD expression, RNA-seq result: −0.16
Gene C4A
  C4A expression, RNA-seq result: 0.05
Gene C9
  C9 expression, RNA-seq result: −0.2
Gene C10orf10
  C10orf10 expression, RNA-seq result: 0.02
Gene C10orf11
  C10orf11 expression, RNA-seq result: 0.18
Gene C15orf41
  C15orf41 expression, RNA-seq result: 0.13
Gene CA2
  CA2 expression, RNA-seq result: 0.53
Gene CA5A
  CA5A expression, RNA-seq result: 0.24
Gene CA12
  CA12 expression, RNA-seq result: 0.77
Gene CAV1
  CAV1 expression, RNA-seq result: −0.47
Gene CCND1
  CCND1 expression, RNA-seq result: −0.33
Gene CD46
  CD46 expression, RNA-seq result: −0.14
Gene CD81
  CD81 expression, RNA-seq result: 0.3
Gene CD320
  CD320 expression, RNA-seq result: 0.17
Gene CDAN1
  CDAN1 expression, RNA-seq result: 0.25
Gene CDH1
  CDH1 expression, RNA-seq result: −0.29
Gene CEP19
  CEP19 expression, RNA-seq result: −0.07
Gene CEP83
  CEP83 expression, RNA-seq result: −0.12
Gene CEP164
  CEP164 expression, RNA-seq result: 0.12
Gene CEP290
  CEP290 expression, RNA-seq result: −0.14
Gene CFB
  CFB expression, RNA-seq result: 0.02
Gene CFHR2
  CFHR2 expression, RNA-seq result: −0.46
Gene CHRM3
  CHRM3 expression, RNA-seq result: −0.06
Gene CIDEC
  CIDEC expression, RNA-seq result: 0.1
Gene CLDN1
  CLDN1 expression, RNA-seq result: −0.37
Gene COG1
  COG1 expression, RNA-seq result: 0.06

## CCCCCCCCCCCCCCCCCCOP(=O)([O-])OC1CC[N+](C)(C)CC1 [Perifosine (KRX-0401), Perifosine]
RNA-seq, p≤0.05
  significant modulation of expression of any of the genes analyzed: not observed to significantly modulate expression
